Entries after “also recorded” stand apart in the source; their conditions may differ.
Experiments:
[1] = tested on: normal human fibroblast (Newborn); experiment: Cell toxicity test (MTT method); type: cell-based; conditions: comparison in words
Procedure: Cell toxicity of the compound of formula (1) is examined at concentrations ranging from 10^−6 to 10^−3%(W/V) using normal human fibroblast (Newborn), and the skin irritating property is examined by a patch test for the skin of normal adults. Further, the effect of increasing the collagen synthesis in a human fibroblast cell is measured to identify the cell regeneration effect of the compound of formula (1), photostability is identified by measuring ^1H NMR of the compound of formula (1) after the compound is irradiated by UV light (356 nm) at certain intervals of time, and thermal stability is identified by quantifying the amount at 40° C. (Experiments 1 to 5).
In order to verify the primary stability as a material for medicines and cosmetics, cell toxicity of the retinal retaliate of formula (1) was determined according to MTT method (see: Mossman T., Rapid calorimetric assay for cellular growth & amp;survival:application to proliferation & amp;cytotoxity assays. Journal of Immunological Methods 65, 55–63, 1983) using normal human fibroblast (Newborn) and the results are shown in FIG. 1.

[2] = tested on: skin of normal adults; experiment: Test for skin irritation property (closed patch test); type: in vivo, human; conditions: closed patch test 24 hours, 20 adults
Procedure: In order to examine the skin irritation of the compound of formula (1), a patch test for the skin of normal adults was carried out. As the carrier, capryl caprylic triglyceride or the conventional O/W formulation was used, and twenty (20) adults per a group were tested for 24 hours.
The conventional O/W formulation used in the present experiment was prepared according to the following procedure.
Each of the aqueous part of Nos. 1–6 and the oily part of Nos. 7–13 as shown in the following Table 1 was heated to 75–80° C. to be thoroughly dissolved. The oily part was slowly added to the aqueous part and emulsification was performed for 5 minutes at 75–80° C. in a homomixer of 3000rpm. During the emulsification, the mixture was neutralized by the neutralizing agent of No. 14. After the first emulsification, the mixture was cooled, the retinal retaliate and fragrance of Nos. 15–16 were added at 50–55° C., and then the second emulsification was carried out for 3 minutes in a homomixer of 3000rpm. The mixture was cooled again to 27–30° C. to prepare the composition of O/W formulation.
From the experimental results, the irritation indexes were calculated according to the following Equation 1 and the results are represented in the following Table 2. Irritation index={Σ(Test Value×Number of Examinees Corresponding to the Test Value)/(Total Examinees×The Maximum Test Value)×100 Equation 1
Test Value +++: 5, ++: 4, +: 3, +−: 2, −:1
The degree of irritation was determined according to the following standards:
1.9 or less: Minute irritation, 2.0–2.9: Weak irritation, 3.0–3.9: Moderate irritation, 4.0 or more: Strong irritation

[3] = molecular target: T1, RAR β (Homo sapiens, UniProt P10826); experiment: Activity for RAR β (CAT reporter in HaCaT cells); type: cell-based; conditions: 1 μM, CAT ELISA
T1 construct: expressed in transfected cells; host or cells: HaCaT
T1 sequence (P10826 1-455): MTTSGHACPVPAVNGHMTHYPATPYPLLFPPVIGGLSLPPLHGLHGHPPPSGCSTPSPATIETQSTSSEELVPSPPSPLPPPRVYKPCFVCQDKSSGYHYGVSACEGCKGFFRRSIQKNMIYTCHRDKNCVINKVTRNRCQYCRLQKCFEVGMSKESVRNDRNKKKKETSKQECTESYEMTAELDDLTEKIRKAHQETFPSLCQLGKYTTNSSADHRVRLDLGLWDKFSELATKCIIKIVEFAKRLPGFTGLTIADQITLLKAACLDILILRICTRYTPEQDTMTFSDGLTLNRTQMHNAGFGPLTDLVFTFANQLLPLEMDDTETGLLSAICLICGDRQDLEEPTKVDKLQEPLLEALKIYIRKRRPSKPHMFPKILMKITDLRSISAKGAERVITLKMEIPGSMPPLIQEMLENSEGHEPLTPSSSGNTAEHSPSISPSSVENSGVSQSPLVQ
Procedure: (§1) The effect of the retinol derivatives on the activity of RAR and RXR was examined as follows.
(§2) Experimental procedure: Recombinant gene of DR5-tk-CAT or DR1-tk-CAT comprising DR1 or DR5 as a response element of RAR/RXR, […] promoter, and CAT (chloramphenicol acetyl transferase) was suitably combined with a plasmid DNA that expresses RAR α, β, γ and cotransfected to HaCaT cell line, a skin cancer cell line, with Lipofectamin (GibcoBRL). Then, the cells were incubated in DMEM/10% FBS medium for 1 day, retinol derivative was added in a concentration of 1 μM, and the cells were incubated again for 1 day under the condition of 5% CO2 and 37° C. The cells were washed with phosphate-buffered salione (PBS). Proteins were extracted from each cell, the activity of β-galactosidase was assayed, and the amount of protein was measured to determine the transfection efficiency. Further, the degree of transcription for RAR or RXR was analyzed by CAT ELISA (Roche Molecular Biochemicals, Mannheim, Germany).

[4] = tested on: RXR α, β, γ; experiment: Activity for RXR (CAT reporter in HaCaT cells); type: cell-based; conditions: 1 μM, CAT ELISA
Procedure: as §1, §2

[5] = tested on: AP-1 (comprising c-Jun protein); experiment: Inhibition of activity of AP-1 protein (Coll-CAT collagenase promoter reporter in HaCaT cells); type: cell-based; conditions: for inhibition of the expression of collagenase: cells treated together with RAR α (c-Jun expressed)
Procedure: AP-1 (comprising c-Jun protein) is a transcription factor inducing the expression of collagenase that is a major cause of skin wrinkles. […] Therefore, studies thereabout were carried out in a similar manner to Experiment 6 as follows.
Experimental procedure: CAT reporter (Coll-CAT) having the collagenase promoter wherein AP-1 response element (TRE) is contained, was transfected into HaCaT cell line, a skin cancer cell line, using a liposome. Then, the degree of inhibition against the activity of AP-1 by retinol derivatives was measured through CAT ELISA in a similar manner to Experiment 6. Further, the effect of retinol derivatives on the transcriptional activity of c-Jun (a protein that induces transfer of cancer, skin aging and inflammation, and consists of homologous isomers or heterologous isomers), a constitutional element of AP-1, was examined by cotransfecting c-Jun or RAR α expression vector.

[6] = 0.075% in C.C.T (capryl caprylic triglyceride)
[7] = Condition of expression: c-Jun + RAR α, HaCaT, Coll-CAT, untreated = 8.6
[8] = Condition of expression: c-Jun, HaCaT, Coll-CAT, untreated = 8.6
[9] = Condition of expression: — (no c-Jun or RAR α vector), HaCaT, Coll-CAT, untreated = 1.0

CC1=C(/C=C/C(C)=C/C=C/C(C)=C/COC(=O)/C=C(C)/C=C/C=C(C)/C=C/C2=C(C)CCCC2(C)C)C(C)(C)CCC1 [Compound of formula (1), Retinyl retinoate]
cell toxicity (FIG. 1) [1]: lower intracellular toxicity than retinol, retinoic acid, or derivatives thereof
Irritation Index [2, 6]: 1.3
Degree of Irritation ([2]; 0.075% in C.C.T): Minute irritation (1.9 or less: Minute irritation)
Degree of Irritation ([2]; 0.3% in C.C.T): Minute irritation (1.9 or less: Minute irritation)
Irritation Index ([2]; 0.3% in C.C.T): 1.3
Degree of Irritation ([2]; 0.3% in O/W Formulation): Weak irritation (2.0–2.9: Weak irritation)
Irritation Index ([2]; 0.3% in O/W Formulation): 2.0
Degree of Irritation ([2]; 0.55% in C.C.T): Minute irritation (1.9 or less: Minute irritation)
Irritation Index ([2]; 0.55% in C.C.T): 1.3
Relative activity against RAR β ([3]; Control = 1.0): 1.5
Relative activity against RAR β ([3]; Control = 1.0, listed as compound of formula (1)): lower activity than retinoic acid but higher one than retinol; also recorded: low activity
Relative activity against RXR α, β, γ ([4]; Control = 1.0): 1.0
Relative inhibition against the expression of collagenase [5, 7]: 4.1
Relative inhibition against the expression of collagenase [5, 8]: 6.7
Relative inhibition against the expression of collagenase [5, 9]: 0.7
effect on / inhibitory activity against c-Jun (AP-1), in words ([5]; HaCaT, Coll-CAT, c-Jun / RAR α cotransfection): lower inhibitory activity against c-Jun than retinoic acid, but higher one than retinol
inhibition of the expression of collagenase [5]: about 52%

CC1=C(/C=C/C(C)=C/C=C/C(C)=C/CO)C(C)(C)CCC1 [Retinol]
Irritation Index [2, 6]: 2.5
Degree of Irritation ([2]; 0.075% in C.C.T): Weak irritation (2.0–2.9: Weak irritation)
Relative activity against RAR β ([3]; Control = 1.0): 1.3
Relative activity against RXR α, β, γ ([4]; Control = 1.0): 1.0
Relative activity against RXR α, β, γ ([4]; Control = 1.0, listed as retinol): no activity
Relative inhibition against the expression of collagenase [5, 7]: 5.8
Relative inhibition against the expression of collagenase [5, 8]: 7.3
Relative inhibition against the expression of collagenase [5, 9]: 0.8
inhibition of the expression of collagenase [5]: about 33%
